Values after ≈ are worked out from the molar mass of the structure shown. “Also recorded” adds a separate entry of the source. Where two headings read alike, the source gives them in different places.
How the values were obtained:
[1] = test system: Staphylococcus aureus Rosenbach (ATCC 25923); assay: Antibacterial microbroth dilution MIC/MBC against S. aureus; type: cell-based; conditions: S. aureus Rosenbach ATCC 25923; for MIC / MIC90 / MBC90 (minimal bactericidal concentration) / MBC: Staphylococcus aureus; for MIC: ATCC25923, 24 h; for MIC90 / MBC90 (minimal bactericidal concentration) / MBC: ATCC25923; for MBC90 (minimal bactericidal concentration): read-out: MBC (IC90) / minimal bactericidal concentration (MBC90); for MBC: treated culture transferred to new media, read-out: MBC90 [(μM) mean ± SD]; for Relative antibacterial activity compared with another compound: 1 versus 2, 9 versus 8
Experimental: The minimum inhibition concentration (MIC) and the minimum bactericidal/fungicidal concentration (MBC/MFC) were carried out using the microbroth dilution method according to the Clinical Laboratory Standards Institute (CLSI) guidelines, with some modifications. […] The tested compounds were then incubated together with bacterial cells at 37 °C for 24 h and with fungal spores at 25 °C for 72 h, respectively. The OD600 measurements were subsequentially carried out to evaluate the inhibitory effect of the compounds. To further determine the bactericidal and fungicidal effects of the compounds, 5 µL of the treated culture was transferred onto new media microplates. The plates were incubated under the same condition, followed by the OD600 measurement. […] The cells were then treated with the compounds for 72 h at 37 °C in the presence of 5% CO2. Any Cytotoxic effect was detected with PrestoBlue™ cell viability reagent (ThermoFisher Scientific, Waltham, MA, USA). The cells were read with a fluorescence reading at an excitation of 560 nm and an emission 590 nm. Standard inhibitors, gentamicin (Gibco, Waltham, MA, USA), amphotericin (Sigma-Aldrich, St. Louis, MO, USA) and puromycin (Sigma-Aldrich, St. Louis, MO, USA) were used as the assay controls for the antibacterial, antifungal and cytotoxicity assay. […] GraphPad Prism 8 software (GraphPad, San Diego, CA, USA) was used for the analysis of the bioactivity to determine the respective IC90 and IC50 values.

[2] = test system: Clostridium difficile infections; parameters: method as in PMID 25534727, PMID 22315981; conditions: phase 2 clinical trial, humans; cited from earlier work
[3] = Figure 5, read-out: MIC (IC90) / minimal inhibitory concentration (MIC90)
[4] = 37 °C, 24 h, OD600, mean ± SD, triplicates, read-out: MIC90 [(μM) mean ± SD]

Row | Compound | Antibacterial activity against S. aureus (in words) [1] | MIC [1, 3] [µM] | MIC90 [1, 4] [µM] | MBC90 (minimal bactericidal concentration) ([1]; Figure 5) [µM] | MIC90 [1, 3] [µM] | MBC ([1]; OD600, mean ± SD, triplicates) [µM] | Recurrence rates versus vancomycin [2] | Relative antibacterial activity compared with another compound [1]
1 | CNC(=O)CC1NC(=O)c2csc(n2)-c2ccc(-c3nc(C4=NC(C(=O)N5CCCC5C(=O)O)CO4)cs3)nc2-c2csc(n2)-c2csc(n2)C(C(O)c2ccccc2)NC(=O)CNC(=O)c2nc(sc2COC)C(C(C)C)NC(=O)c2csc1n2 (centres unmarked) [Compound 4, GE2270F4] | inactive; also recorded: no bioactivity | 2 to 11 (≈ 2.56 to 14.1 µg/mL) | > 70 | > 70 | > 70 | > 70 |  | 
2 | CNC(=O)CC1NC(=O)c2csc(n2)-c2ccc(-c3nc(C4=NC(C(=O)N5CCCC5C(=O)O)CO4)cs3)nc2-c2csc(n2)-c2csc(n2)C(C(O)c2ccccc2)NC(=O)CNC(=O)c2csc(n2)C(C(C)C)NC(=O)c2csc1n2 (centres unmarked) [Compound 3, GE2270F3] | inactive; also recorded: no bioactivity | 2 to 11 (≈ 2.47 to 13.6 µg/mL) | > 70 | > 70 | > 70 | > 70 |  | 
3 | CNC(=O)C[C@@H]1NC(=O)c2csc(n2)-c2ccc(-c3nc(N(CCCCC(=O)O)C(=O)O[C@H]4CC[C@H](C(=O)O)CC4)cs3)nc2-c2csc(n2)-c2csc(n2)[C@H]([C@@H](O)c2ccccc2)NC(=O)CNC(=O)c2nc(sc2COC)[C@H](C(C)C)NC(=O)c2nc1sc2C [LFF571] |  |  |  |  |  |  | higher recurrence rates than conventional antibiotics treatment with vancomycin | 
4 | CNC(=O)CC1NC(=O)c2csc(n2)-c2ccc(-c3nc(C4=NC(C(=O)N5CCCC5C(=O)O)CO4)cs3)nc2-c2csc(n2)-c2csc(n2)C(C(O)c2ccccc2)NC(=O)CNC(=O)c2csc(n2)C(C(C)C)NC(=O)c2nc1sc2C (centres unmarked) [Compound 2, GE2270F2] | displayed activities |  | 6.94 ± 0.83 (≈ 8.66 µg/mL) | 67.9 (≈ 84.7 µg/mL) | 6.94 (≈ 8.66 µg/mL) | 67.9 ± 1.55 (≈ 84.7 µg/mL) |  | 
5 | CNC(=O)C[C@@H]1NC(=O)c2csc(n2)-c2ccc(-c3nc(C(=O)O)cs3)nc2-c2csc(n2)-c2csc(n2)[C@H]([C@@H](O)c2ccccc2)NC(=O)CNC(=O)c2nc(sc2COC)[C@H](C(C)C)NC(=O)c2nc1sc2C [Compound 9] | displayed activities |  | 10.3 ± 0.75 (≈ 11.6 µg/mL) | 52 (≈ 58.5 µg/mL) | 10.3 (≈ 11.6 µg/mL) | 52 ± 1.41 (≈ 58.5 µg/mL) |  | at least a three-fold reduction
6 | CNC(C)C1CCC(N)C(OC2C(N)CC(N)C(OC3OCC(C)(O)C(NC)C3O)C2O)O1 (centres unmarked) [Gentamicin, gentamicin, reference compound] |  |  | 0.04 ± 0.01 (≈ 0.0191 µg/mL) | 0.1 (≈ 0.0478 µg/mL) | 0.04 (≈ 0.0191 µg/mL) | 0.1 ± 0.01 (≈ 0.0478 µg/mL) |  | 
7 | CNC(=O)C[C@@H]1NC(=O)c2csc(n2)-c2ccc(-c3nc(C(=O)OC)cs3)nc2-c2csc(n2)-c2csc(n2)[C@H]([C@@H](O)c2ccccc2)NC(=O)CNC(=O)c2nc(sc2COC)[C@H](C(C)C)NC(=O)c2nc1sc2C [Compound 8] | displayed activities | 3.17 (≈ 3.61 µg/mL) | 3.17 ± 0.28 (≈ 3.61 µg/mL) | 16.2 (≈ 18.5 µg/mL) | 3.17 (≈ 3.61 µg/mL) | 16.2 ± 1.48 (≈ 18.5 µg/mL) |  | 
8 | CNC(=O)C[C@@H]1NC(=O)c2csc(n2)-c2ccc(-c3nc(C(=O)N[C@@H](CO)C(=O)N4CCC[C@H]4C(N)=O)cs3)nc2-c2csc(n2)-c2csc(n2)[C@H]([C@@H](O)c2ccccc2)NC(=O)CNC(=O)c2nc(sc2COC)[C@H](C(C)C)NC(=O)c2nc1sc2C [Compound 6] | displayed activities; also recorded: demonstrated antibacterial activity | 2 to 11 (≈ 2.62 to 14.4 µg/mL) | 7.07 ± 0.55 (≈ 9.25 µg/mL) |  | 7.07 (≈ 9.25 µg/mL) |  |  | 
9 | CNC(=O)C[C@@H]1NC(=O)c2csc(n2)-c2ccc(-c3nc(C(=O)OC)cs3)nc2-c2csc(n2)-c2csc(n2)[C@H]([C@@H](O)c2ccccc2)NC(=O)CNC(=O)c2csc(n2)[C@H](C(C)C)NC(=O)c2nc1sc2C [Compound 7] | displayed activities |  | 4.71 ± 0.37 (≈ 5.16 µg/mL) | 12.4 (≈ 13.6 µg/mL) | 4.71 (≈ 5.16 µg/mL) | 12.4 ± 1.06 (≈ 13.6 µg/mL) |  | 
10 | CNC(=O)CC1NC(=O)c2csc(n2)-c2ccc(-c3nc(C4=NC(C(=O)N5CCCC5C(=O)O)CO4)cs3)nc2-c2csc(n2)-c2csc(n2)C(C(O)c2ccccc2)NC(=O)CNC(=O)c2nc(sc2COC)C(C(C)C)NC(=O)c2nc1sc2C (centres unmarked) [Compound 1, GE2270F1] | displayed activities | 2.63 (≈ 3.4 µg/mL) | 2.63 ± 0.12 (≈ 3.4 µg/mL) | 18.5 (≈ 23.9 µg/mL) | 2.63 (≈ 3.4 µg/mL) | 18.5 ± 1.34 (≈ 23.9 µg/mL) |  | three-fold more active
11 | CNC(=O)C[C@@H]1NC(=O)c2csc(n2)-c2ccc(-c3nc(C(=O)N[C@@H](CO)C(=O)N4CCC[C@H]4C(N)=O)cs3)nc2-c2csc(n2)-c2csc(n2)[C@H]([C@@H](O)c2ccccc2)NC(=O)CNC(=O)c2csc(n2)[C@H](C(C)C)NC(=O)c2nc1sc2C [Compound 5] | inactive | 2 to 11 (≈ 2.53 to 13.9 µg/mL) | > 70 | > 70 | > 70 | > 70 |  | 

Source: PMC9822014, “Antibacterial Thiopeptide GE2270-Congeners from Nonomuraea jiangxiensis” (Molecules, 2022)
